Values quoted from earlier work in patent US20230301959A1, “COMBINATIONS OF CARNOSINE AND ZINC FOR THE TREATMENT AND PREVENTION OF VIRAL INFECTIONS” (priority 2020, published 2023).

Tests used:
[1] = system: H9N2 influenza virus; conditions: mouse, in vivo, po, 10 mg/kg
[2] = system: Dengue and Zika virus; conditions: liver cell culture
[3] = dietary administration
[4] = target: rhinovirus 3C protease (Human rhinovirus 14, UniProt P03303)
[5] = target: poliovirus 3C protease (Poliovirus type 1, UniProt P03300)
Sequence of poliovirus 3C protease (P03300 1566-1748 limits assumed): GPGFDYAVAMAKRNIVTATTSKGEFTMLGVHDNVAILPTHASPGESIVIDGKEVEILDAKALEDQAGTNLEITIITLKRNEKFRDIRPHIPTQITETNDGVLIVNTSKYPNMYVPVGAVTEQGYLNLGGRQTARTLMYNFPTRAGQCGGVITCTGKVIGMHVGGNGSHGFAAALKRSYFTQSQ

[6] = system: human rhinovirus; conditions: infected cells
[7] = system: coxsackievirus B3; conditions: infected cells
[8] = target: T1, viral RNA-dependent RNA polymerase (RdRp) from rhinoviruses (Human rhinovirus 16, UniProt Q82122)
T1 construct: viral RNA-dependent RNA polymerase (RdRp) from rhinoviruses and hepatitis C
T1 sequence (Q82122 1694-2153 limits assumed): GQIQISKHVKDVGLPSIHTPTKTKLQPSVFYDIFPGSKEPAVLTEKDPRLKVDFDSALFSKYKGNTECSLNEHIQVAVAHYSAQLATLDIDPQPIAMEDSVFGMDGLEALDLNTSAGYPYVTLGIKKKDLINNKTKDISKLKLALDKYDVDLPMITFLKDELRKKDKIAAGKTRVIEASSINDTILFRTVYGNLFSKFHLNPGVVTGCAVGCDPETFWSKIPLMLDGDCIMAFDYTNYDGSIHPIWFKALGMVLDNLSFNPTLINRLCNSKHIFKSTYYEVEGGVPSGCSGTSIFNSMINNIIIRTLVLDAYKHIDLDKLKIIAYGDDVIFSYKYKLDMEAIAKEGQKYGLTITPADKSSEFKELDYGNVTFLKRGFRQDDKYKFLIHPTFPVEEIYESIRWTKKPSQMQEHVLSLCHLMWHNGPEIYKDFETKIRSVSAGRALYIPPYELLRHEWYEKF

[9] = system: viral RNA-dependent RNA polymerase (RdRp) from hepatitis C
[10] = target: coronavirus RNA polymerase (Severe acute respiratory syndrome coronavirus, UniProt P0C6X7)
[11] = target: T2, arterivirus RNA polymerase (Equine arteritis virus, UniProt P19811); conditions: in vitro
T2 sequence (P19811 1678-2370 limits assumed): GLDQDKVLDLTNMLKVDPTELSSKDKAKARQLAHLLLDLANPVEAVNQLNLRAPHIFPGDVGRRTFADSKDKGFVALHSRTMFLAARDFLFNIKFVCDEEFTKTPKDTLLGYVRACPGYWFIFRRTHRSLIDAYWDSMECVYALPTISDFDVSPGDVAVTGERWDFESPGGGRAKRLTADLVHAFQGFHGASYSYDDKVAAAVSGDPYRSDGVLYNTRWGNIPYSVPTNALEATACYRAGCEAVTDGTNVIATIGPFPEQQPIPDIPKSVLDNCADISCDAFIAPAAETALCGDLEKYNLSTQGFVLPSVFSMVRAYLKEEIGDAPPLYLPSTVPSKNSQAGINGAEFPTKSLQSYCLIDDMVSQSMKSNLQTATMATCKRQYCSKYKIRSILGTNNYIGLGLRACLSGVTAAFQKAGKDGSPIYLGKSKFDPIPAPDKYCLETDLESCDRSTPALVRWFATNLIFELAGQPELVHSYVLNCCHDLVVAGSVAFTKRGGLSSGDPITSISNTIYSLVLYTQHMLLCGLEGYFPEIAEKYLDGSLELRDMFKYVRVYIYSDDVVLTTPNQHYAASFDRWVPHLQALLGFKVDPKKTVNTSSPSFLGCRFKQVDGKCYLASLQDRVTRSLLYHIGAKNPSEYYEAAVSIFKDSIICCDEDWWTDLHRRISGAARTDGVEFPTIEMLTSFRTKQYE

Sequence of rhinovirus 3C protease (P03303 1538-1719 limits assumed): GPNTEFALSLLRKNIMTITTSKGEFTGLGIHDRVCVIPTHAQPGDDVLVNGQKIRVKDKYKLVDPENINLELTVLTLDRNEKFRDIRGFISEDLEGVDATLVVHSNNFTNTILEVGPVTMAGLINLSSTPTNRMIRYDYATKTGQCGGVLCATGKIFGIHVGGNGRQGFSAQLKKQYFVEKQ

In the case of `NCCC(=O)N[C@@H](Cc1cnc[nH]1)C(=O)O` [carnosine, β-alanyl-L-histidine], the “levels of TNF-a, IL-1b, TLR-4 mRNA and protein” value [1] is given as “significantly reduced”, the “lung wet mass ratio” value [1] is given as “decreased” and the myeloperoxidase activity [1] is given as “reduced”. The overall mortality [1] was 43%, the pathological lung lesions [1] was “improvement” and the “cell viability post infection” value [2] was “ameliorate”. For the same molecule, the viral genome replication [2] was “significantly inhibit”, the “early atherosclerotic lesion formation” value [3] was “prevent” and the renal disease [3] was “attenuating”. The “safety of regular administration” value (2-4 months, in combination with forskolin, homotaurine, vitamins B1, B2, B6, folic acid, magnesium, different age groups) was “safe” and the tolerability (2 weeks, obese patients with Type-II diabetes and Gulf-War Veterans, without any reported adverse reactions) was “well tolerated”.

For `[Zn+2]` [zinc ion], the protease activity [4] is given as “inhibited”, the protease activity [5] is given as “inhibited” and the polyprotein processing [6] is given as “inhibited”. The polyprotein processing [7] was “inhibited”, the “activity of RdRp” value [8] was “inhibitory effect” and the “activity of RdRp” value [9] was “inhibitory effect”. For the same molecule, the RNA polymerase activity [10] was “inhibits” and the RNA polymerase activity [11] was “inhibits”.
